Measured values taken from patent US11820766B2, “Monoacylglycerol lipase modulators” (Janssen Pharmaceutica NV, priority 2018, dated 2023).
Structures can show the parent of a compound that is named as a salt.

Target: T1, human MGL from HeLa cells (Homo sapiens, UniProt Q99685)
T1 construct: combining endogenously expressed MGL from HeLa cells with test compounds; endogenous in cells; host or cells: HeLa cells / cell homogenates
T1 sequence (Q99685 1-303): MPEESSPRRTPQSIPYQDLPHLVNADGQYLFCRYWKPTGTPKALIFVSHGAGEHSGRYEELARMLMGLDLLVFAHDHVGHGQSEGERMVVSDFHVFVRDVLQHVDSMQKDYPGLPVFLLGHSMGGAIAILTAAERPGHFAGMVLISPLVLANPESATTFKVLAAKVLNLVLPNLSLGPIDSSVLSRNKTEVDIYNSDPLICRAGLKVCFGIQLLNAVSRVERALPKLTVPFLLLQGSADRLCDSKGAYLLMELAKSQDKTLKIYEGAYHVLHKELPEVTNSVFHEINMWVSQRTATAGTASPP
Experiment: In vitro MGL activity assay: [glycerol-1,3-3H]-oleyl glycerol cleavage by MGL from HeLa cells
Format: biochemical
Settings: 300 nM [Glycerol-1,3-3H]-oleyl glycerol, one hour
Text: MGL is the predominant hydrolase in HeLa cells/cell homogenates.

Question: How did the IC50 turn out when `C[C@H]1c2nn(C)c(-c3cc(F)c(F)c(F)c3)c2CCN1C(=O)c1cnn2c1CCC2` [Example 551, 5,6-Dihydro-4H-pyrrolo[1,2-b]pyrazol-3-yl-[(7S)-2,7-dimethyl-3-(3,4,5-trifluorophenyl)-5,7-dihydro-4H-pyrazolo[3,4-c]pyridin-6-yl]methanone] was run?
Answer: Its IC50 is 122 nM.

Question: With `C[C@H]1c2nn(C)c(-c3cc(F)c(F)c(F)c3)c2CCN1C(=O)c1ccc2c(c1)OCC(=O)N2C` [Example 590, 7-[(7S)-2,7-Dimethyl-3-(3,4,5-trifluorophenyl)-5,7-dihydro-4H-pyrazolo[3,4-c]pyridine-6-carbonyl]-4-methyl-1,4-benzoxazin-3-one.TFA salt] as the compound, how does the IC50 read?
Answer: The IC50 was 173 nM.

Question: `C[C@H]1c2nn(C)c(-c3cc(F)c(F)c(F)c3)c2CCN1C(=O)c1ccc2c(n1)COCC2` [Example 566, 6,8-Dihydro-5H-pyrano[3,4-b]pyridin-2-yl-[(7S)-2,7-dimethyl-3-(3,4,5-trifluorophenyl)-5,7-dihydro-4H-pyrazolo[3,4-c]pyridin-6-yl]methanone] was tested. Which IC50 did it give?
Answer: Its IC50 is 533 nM.

Question: How did the IC50 turn out when `COc1ccc(F)cc1-c1c2c(nn1C)[C@H](C)N(C(=O)c1ccc3ncccc3c1)CC2` [Example 508, [(7S)-3-(5-Fluoro-2-methoxy-phenyl)-2,7-dimethyl-5,7-dihydro-4H-pyrazolo[3,4-c]pyridin-6-yl]-(6-quinolyl)methanone] was run?
Answer: The IC50 was 70 nM.

Question: How did the IC50 turn out when `C[C@H]1c2nn(C)c(-c3cc(F)c(F)c(F)c3)c2CCN1C(=O)c1cccc2c1oc(=O)n2C` [Example 589, 7-[(7S)-2,7-dimethyl-3-(3,4,5-trifluorophenyl)-5,7-dihydro-4H-pyrazolo[3,4-c]pyridine-6-carbonyl]-3-methyl-1,3-benzoxazol-2-one] was run?
Answer: Its IC50 is 1.84 nM.

Question: How did the IC50 turn out when `Cc1c(C(=O)N2CCc3c(nn(C)c3-c3cc(F)c(F)c(F)c3)[C@@H]2C)nc2ccccn12` [Example 398, [(7S)-2,7-Dimethyl-3-(3,4,5-trifluorophenyl)-5,7-dihydro-4H-pyrazolo[3,4-c]pyridin-6-yl]-(3-methylimidazo[1,2-a]pyridin-2-yl)methanone] was run?
Answer: The IC50 was 248 nM.

Question: `C[C@H]1c2nn(C)c(-c3cc(F)c(F)c(F)c3)c2CCN1C(=O)c1cnc2cc(F)ccn12` [Example 393, [(7S)-2,7-Dimethyl-3-(3,4,5-trifluorophenyl)-5,7-dihydro-4H-pyrazolo[3,4-c]pyridin-6-yl]-(7-fluoroimidazo[1,2-a]pyridin-3-yl)methanone] was tested. Which IC50 did it give?
Answer: Its IC50 is 252 nM.

Question: `C[C@H]1c2nn(C)c(-c3cc(F)c(F)c(F)c3)c2CCN1C(=O)c1ccnc2[nH]ncc12` [Example 422, [(7S)-2,7-Dimethyl-3-(3,4,5-trifluorophenyl)-5,7-dihydro-4H-pyrazolo[3,4-c]pyridin-6-yl]-(1H-pyrazolo[3,4-b]pyridin-4-yl)methanone] was tested. Which IC50 did it give?
Answer: Its IC50 is 45.9 nM.

Question: `C[C@H]1c2nn(C)c(-c3cc(F)c(F)c(F)c3)c2CCN1C(=O)c1cncc2c(F)cccc12` [Example 546, [(7S)-2,7-Dimethyl-3-(3,4,5-trifluorophenyl)-5,7-dihydro-4H-pyrazolo[3,4-c]pyridin-6-yl]-(8-fluoro-4-isoquinolyl)methanone] was tested. Which IC50 did it give?
Answer: The IC50 was 5.06 nM.

Question: `Cc1cc(F)cc(-c2c3c(nn2C)[C@H](C)N(C(=O)c2c(C)nc4ccccn24)CC3)c1` [Example 396, [(7S)-3-(3-Fluoro-5-methyl-phenyl)-2,7-dimethyl-5,7-dihydro-4H-pyrazolo[3,4-c]pyridin-6-yl]-(2-methylimidazo[1,2-a]pyridin-3-yl)methanone] was tested. Which IC50 did it give?
Answer: The IC50 was 5.04 nM.

Same assay, conditions: 300 nM [Glycerol-1,3-3H]-oleyl glycerol, one hour incubation

Question: How did the IC50 turn out when `Cn1nc2c(c1-c1ccccc1)CCN(C(=O)c1ccnc3c1ccn3C)C2` [Example 84, (1-Methyl-1H-pyrrolo[2,3-b]pyridin-4-yl)(2-methyl-3-phenyl-2,4,5,7-tetrahydro-6H-pyrazolo[3,4-c]pyridin-6-yl)methanone] was run?
Answer: Its IC50 is 48.3 nM.

Question: With `COc1ccccc1C(=O)N1CCc2c(nn(C)c2-c2cc(F)c(F)c(F)c2)[C@@H]1C` [Example 259, [(7S)-2,7-Dimethyl-3-(3,4,5-trifluorophenyl)-5,7-dihydro-4H-pyrazolo[3,4-c]pyridin-6-yl]-(2-methoxyphenyl)methanone] as the compound, how does the IC50 read?
Answer: The IC50 was 12.6 nM.

Question: Which IC50 does the source give for `C[C@H]1c2nn(C)c(-c3cc(F)cc(F)c3)c2CCN1C(=O)c1ccc2ncc(OCCF)cc2c1` [Example 166, (S)-(3-(3,5-Difluorophenyl)-2,7-dimethyl-2,4,5,7-tetrahydro-6H-pyrazolo[3,4-c]pyridin-6-yl)(3-(2-fluoroethoxy)quinolin-6-yl)methanone] here?
Answer: The IC50 was 11.3 nM.

Question: How did the IC50 turn out when `COc1cncc(C(=O)N2CCc3c(nn(C)c3-c3cc(F)c(F)c(F)c3)[C@@H]2C)c1C` [Example 313, [(7S)-2,7-Dimethyl-3-(3,4,5-trifluorophenyl)-5,7-dihydro-4H-pyrazolo[3,4-c]pyridin-6-yl]-(5-methoxy-4-methyl-3-pyridyl)methanone] was run?
Answer: The IC50 was 38 nM.

Question: `Cn1nc2c(c1-c1cccc(OC(F)F)c1)CCN(C(=O)c1ccc3ncccc3c1)C2` [Example 98, (3-(3-(Difluoromethoxy)phenyl)-2-methyl-2,4,5,7-tetrahydro-6H-pyrazolo[3,4-c]pyridin-6-yl)(quinolin-6-yl)methanone] was tested. Which IC50 did it give?
Answer: Its IC50 is 973 nM.

Question: `C[C@@H]1c2nn(C)c(-c3ccccc3)c2CCN1C(=O)c1ccc2ncccc2c1` (single isomer, unassigned) [Example 111] was tested. Which IC50 did it give?
Answer: Its IC50 is 8240 nM.

Question: With `C[C@H]1c2nn(C)c(-c3cc(F)c(F)c(F)c3)c2CCN1C(=O)c1cccc2cc[nH]c12` [Example 205, (S)-(2,7-Dimethyl-3-(3,4,5-trifluorophenyl)-2,4,5,7-tetrahydro-6H-pyrazolo[3,4-c]pyridin-6-yl)(1H-indol-7-yl)methanone] as the compound, how does the IC50 read?
Answer: Its IC50 is 33.3 nM.

Question: How did the IC50 turn out when `CC1c2nn(-c3ccccc3)c(-c3ccccc3)c2CCN1C(=O)c1ccc2ncccc2c1` (stereo not drawn) [Example 113, (7-Methyl-2,3-diphenyl-2,4,5,7-tetrahydro-6H-pyrazolo[3,4-c]pyridin-6-yl)(quinolin-6-yl)methanone] was run?
Answer: The IC50 was 236 nM.

Question: Which IC50 does the source give for `C[C@H]1c2nn(C)c(-c3cc(F)c(F)c(F)c3)c2CCN1C(=O)c1ccccc1OC(F)(F)F` [Example 263, [(7S)-2,7-Dimethyl-3-(3,4,5-trifluorophenyl)-5,7-dihydro-4H-pyrazolo[3,4-c]pyridin-6-yl]-[2-(trifluoromethoxy)phenyl]methanone] here?
Answer: The IC50 was 28.3 nM.

Question: How did the IC50 turn out when `C[C@H]1c2nn(C)c(-c3cc(F)c(F)c(F)c3)c2CCN1C(=O)c1cnn(C)c1C1CC1` [Example 201, (S)-(5-Cyclopropyl-1-methyl-1H-pyrazol-4-yl)(2,7-dimethyl-3-(3,4,5-trifluorophenyl)-2,4,5,7-tetrahydro-6H-pyrazolo[3,4-c]pyridin-6-yl)methanone] was run?
Answer: Its IC50 is 6.26 nM.

Question: With `CCc1nc(C(=O)N2CCc3c(nn(C)c3-c3cccc(Cl)c3)[C@@H]2C)nn1-c1ccccc1F` [Example 118, (S)-(3-(3-Chlorophenyl)-2,7-dimethyl-2,4,5,7-tetrahydro-6H-pyrazolo[3,4-c]pyridin-6-yl)(5-ethyl-1-(2-fluorophenyl)-1H-1,2,4-triazol-3-yl)methanone] as the compound, how does the IC50 read?
Answer: The IC50 was 13.8 nM.

Question: `C[C@H]1c2nn(C)c(-c3cccc(Cl)c3)c2CCN1C(=O)c1ccc2[nH]c(=O)oc2c1` [Example 124, (S)-6-(3-(3-Chlorophenyl)-2,7-dimethyl-4,5,6,7-tetrahydro-2H-pyrazolo[3,4-c]pyridine-6-carbonyl)benzo[d]oxazol-2(3H)-one] was tested. Which IC50 did it give?
Answer: The IC50 was 19.7 nM.

Question: How did the IC50 turn out when `C[C@H]1c2nn(C)c(-c3cc(F)c(F)c(F)c3)c2CCN1C(=O)c1ccc2c(c1)N(C)C(=O)CO2` [Example 204, (S)-6-(2,7-Dimethyl-3-(3,4,5-trifluorophenyl)-4,5,6,7-tetrahydro-2H-pyrazolo[3,4-c]pyridine-6-carbonyl)-4-methyl-2H-benzo[b][1,4]oxazin-3(4H)-one] was run?
Answer: The IC50 was 17.7 nM.

Question: Which IC50 does the source give for `C[C@H]1c2nn(C)c(-c3cc(F)c(F)c(F)c3)c2CCN1C(=O)c1c[nH]c2ccncc12` [Example 218, (S)-(2,7-Dimethyl-3-(3,4,5-trifluorophenyl)-2,4,5,7-tetrahydro-6H-pyrazolo[3,4-c]pyridin-6-yl)(1H-pyrrolo[3,2-c]pyridin-3-yl)methanone] here?
Answer: Its IC50 is 35.2 nM.

Question: `C[C@H]1c2nn(C)c(-c3cc(F)cc(C(F)(F)F)c3)c2CCN1C(=O)c1ccc2nccnc2c1` [Example 184, (S)-(3-(3-Fluoro-5-(trifluoromethyl)phenyl)-2,7-dimethyl-2,4,5,7-tetrahydro-6H-pyrazolo[3,4-c]pyridin-6-yl)(quinoxalin-6-yl)methanone] was tested. Which IC50 did it give?
Answer: The IC50 was 136 nM.

Question: `COc1cc(F)cc(-c2c3c(nn2C)[C@H](C)N(C(=O)c2cc4nccnc4cc2F)CC3)c1` [Example 187, (S)-(3-(3-Fluoro-5-methoxyphenyl)-2,7-dimethyl-2,4,5,7-tetrahydro-6H-pyrazolo[3,4-c]pyridin-6-yl)(7-fluoroquinoxalin-6-yl)methanone] was tested. Which IC50 did it give?
Answer: The IC50 was 41.7 nM.

Question: For `Cn1nc2c(c1-c1ccccc1)CCN(C(=O)c1ccc3c(c1)OCO3)C2` [Example 29, Benzo[d][1,3]dioxol-5-yl(2-methyl-3-phenyl-2,4,5,7-tetrahydro-6H-pyrazolo[3,4-c]pyridin-6-yl)methanone], which IC50 is on record?
Answer: Its IC50 is 1950 nM.

Question: `Cn1nc2c(c1-c1ccccc1)CCN(C(=O)c1cccc3scnc13)C2` [Example 61, Benzo[d]thiazol-4-yl(2-methyl-3-phenyl-2,4,5,7-tetrahydro-6H-pyrazolo[3,4-c]pyridin-6-yl)methanone] was tested. Which IC50 did it give?
Answer: The IC50 was 755 nM.

Question: Which IC50 does the source give for `COc1c(C)cccc1C(=O)N1CCc2c(nn(C)c2-c2ccccc2)C1` [Example 7, (2-Methoxy-3-methylphenyl)(2-methyl-3-phenyl-2,4,5,7-tetrahydro-6H-pyrazolo[3,4-c]pyridin-6-yl)methanone] here?
Answer: The IC50 was 113 nM.

Question: `C[C@H]1c2nn(C)c(-c3cc(F)c(F)c(F)c3)c2CCN1C(=O)c1cnn2ccncc12` [Example 229, (S)-(2,7-Dimethyl-3-(3,4,5-trifluorophenyl)-2,4,5,7-tetrahydro-6H-pyrazolo[3,4-c]pyridin-6-yl)(pyrazolo[1,5-a]pyrazin-3-yl)methanone] was tested. Which IC50 did it give?
Answer: The IC50 was 40.7 nM.
